What is called IC50 is the concentration at which inhibition is half-maximal.

What all share (assay): In vitro MMP inhibition, IC50 determination (fluorogenic substrate I)
Holding throughout (type): biochemical
What all share (details): value outside parenthesis

One experiment deals with T1, Human recombinant MMP-14 (Homo sapiens, UniProt P50281).
T1 construct: The catalytic domain enzyme was expressed in E. coli inclusion bodies, solubilized in urea; made in house
Summed up: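 Catalytic-domain MMP-14, expressed in E. coli and refolded, activated with APMA or trypsin; compounds incubated at room temperature with 4 μM fluorogenic substrate I (MCA-PLGL-Dpa-AR-NH2) in Tris/NaCl/CaCl2 buffer, pH 7.5. Fluorescence at ex 328/em 415 nm; IC50 from loss of fluorescence versus inhibitor concentration.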

The target in a further experiment is T2, Human recombinant MMP-1 (Homo sapiens, UniProt P03956).
T2 construct: made in house; host or cells: MMP-1-transfected HT-1080 cells (spent media)
T2 sequence (P03956 100-469): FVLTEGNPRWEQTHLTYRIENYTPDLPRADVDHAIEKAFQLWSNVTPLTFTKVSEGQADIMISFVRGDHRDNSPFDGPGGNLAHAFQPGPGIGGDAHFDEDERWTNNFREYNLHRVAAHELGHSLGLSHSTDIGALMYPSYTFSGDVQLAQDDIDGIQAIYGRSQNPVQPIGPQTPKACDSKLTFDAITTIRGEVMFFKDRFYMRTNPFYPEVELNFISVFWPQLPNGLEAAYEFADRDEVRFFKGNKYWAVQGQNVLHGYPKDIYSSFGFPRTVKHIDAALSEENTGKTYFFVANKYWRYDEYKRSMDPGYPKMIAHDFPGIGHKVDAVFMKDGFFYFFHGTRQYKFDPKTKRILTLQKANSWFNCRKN
The method, boiled down: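 APMA- or trypsin-activated enzyme, purified from spent media of transfected HT-1080 cells, incubated at room temperature with 4 μM MCA-Pro-Leu-Gly-Leu-Dpa-Ala-Arg-NH2 and graded inhibitor in Tris buffer pH 7.5 (10 mM CaCl2, 0.05% Brij). Cleavage read by fluorescence (ex 328/em 415 nm); IC50 from fluorescence reduction versus inhibitor concentration.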

The next experiment concerns the target T3, Human recombinant MMP-13 (Homo sapiens, UniProt P45452).
T3 construct: made in house; host or cells: baculovirus / insect cells
Summed up:
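Fluorescence at 415 nm (excitation 328 nm) reports Gly-Leu cleavage of 4 μM quenched methoxycoumarin peptide substrate I. Human recombinant MMP-13, activated by trypsin or APMA, was incubated at room temperature with varied inhibitor concentrations in pH 7.5 Tris/NaCl/CaCl2 buffer; IC50 derived from reduced fluorescence.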

Another experiment has as its target T4, Human recombinant MMP-9 (Homo sapiens, UniProt P14780).
T4 construct: made in house; host or cells: MMP-9-transfected HT1080 cells (spent media)
The method, boiled down: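 MMP-9 proenzyme purified from transfected HT1080 cell media, activated with APMA or trypsin. Compound dilutions in pH 7.5 Tris/NaCl/CaCl2 buffer with 0.05% polyoxyethylene 23 lauryl ether, incubated at room temperature with 4 μM MCA/Dpa substrate I. IC50 from fluorescence loss (ex 328, em 415 nm) versus inhibitor concentration.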

Another experiment has as its target T5, Human recombinant MMP-2 (Homo sapiens, UniProt P08253).
T5 construct: made in house; host or cells: MMP-2-transfected p2AHT2 cells
T5 sequence (P08253 110-660): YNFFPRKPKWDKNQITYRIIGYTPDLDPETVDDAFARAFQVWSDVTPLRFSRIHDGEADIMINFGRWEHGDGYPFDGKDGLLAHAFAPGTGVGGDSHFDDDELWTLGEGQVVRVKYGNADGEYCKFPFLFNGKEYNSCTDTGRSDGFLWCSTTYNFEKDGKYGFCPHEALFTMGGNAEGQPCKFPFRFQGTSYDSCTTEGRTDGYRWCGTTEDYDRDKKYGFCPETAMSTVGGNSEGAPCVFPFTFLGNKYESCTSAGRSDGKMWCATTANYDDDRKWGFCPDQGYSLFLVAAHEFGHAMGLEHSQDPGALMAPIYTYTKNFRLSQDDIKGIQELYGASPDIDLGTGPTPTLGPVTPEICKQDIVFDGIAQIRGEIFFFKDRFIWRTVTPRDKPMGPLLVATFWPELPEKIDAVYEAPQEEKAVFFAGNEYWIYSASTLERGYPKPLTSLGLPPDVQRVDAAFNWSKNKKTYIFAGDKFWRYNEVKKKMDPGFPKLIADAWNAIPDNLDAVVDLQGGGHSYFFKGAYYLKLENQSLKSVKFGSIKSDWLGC
The method, boiled down: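 APMA- or trypsin-activated recombinant MMP-2 was incubated at room temperature with serial inhibitor dilutions in Tris buffer pH 7.5 (100 mM NaCl, 10 mM CaCl2, 0.05% Brij), with DMSO from 1% stocks, and 4 μM substrate I. Cleavage was read by fluorescence at 328/415 nm; IC50 was taken from the loss of fluorescence versus inhibitor concentration.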

SMILES strings stand for the structures.

T4 sequence (P14780 107-707 limits assumed): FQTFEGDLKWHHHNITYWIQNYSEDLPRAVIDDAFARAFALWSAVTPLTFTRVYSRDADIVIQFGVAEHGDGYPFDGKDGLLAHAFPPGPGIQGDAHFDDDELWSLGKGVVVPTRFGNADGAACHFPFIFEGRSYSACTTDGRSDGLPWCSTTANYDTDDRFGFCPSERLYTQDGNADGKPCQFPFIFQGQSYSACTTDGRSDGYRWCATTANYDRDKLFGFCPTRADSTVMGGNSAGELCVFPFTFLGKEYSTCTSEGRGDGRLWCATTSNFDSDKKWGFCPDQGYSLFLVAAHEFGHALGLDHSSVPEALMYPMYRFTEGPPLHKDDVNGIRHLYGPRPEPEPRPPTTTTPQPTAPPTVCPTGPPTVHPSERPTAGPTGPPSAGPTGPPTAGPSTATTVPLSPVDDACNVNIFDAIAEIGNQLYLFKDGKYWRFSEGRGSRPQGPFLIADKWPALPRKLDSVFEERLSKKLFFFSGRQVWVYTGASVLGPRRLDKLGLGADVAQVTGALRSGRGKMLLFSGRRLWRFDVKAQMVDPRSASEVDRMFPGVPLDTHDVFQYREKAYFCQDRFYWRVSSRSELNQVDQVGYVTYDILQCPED

`O=C1CN(c2ccc(OC(F)(F)F)cc2)C(=O)N1CCCOc1ccc(S(=O)(=O)C2(C(=O)NO)CCOCC2)cc1` [Example 144]: the IC50 at Human recombinant MMP-14 is more than 10000 nM; on Human recombinant MMP-1, more than 10000 nM; at Human recombinant MMP-13 it was 2.5 nM; on Human recombinant MMP-9 it was 5990 nM; on Human recombinant MMP-2, 239 nM.
As to `C[C@@H]1C(=O)N(CCCOc2ccc(S(=O)(=O)C3(C(=O)NO)CCOCC3)cc2)C(=O)N1c1ccccc1` [Example 145], the IC50 on Human recombinant MMP-14 is more than 10000 nM; at Human recombinant MMP-1, more than 10000 nM; on Human recombinant MMP-13 it was 2 nM; on Human recombinant MMP-9, 9440 nM; at Human recombinant MMP-2, 817 nM.
In the case of `COc1ccc(C(=O)C(O)CCOc2ccc(S(=O)(=O)C3(C(=O)NO)CCOCC3)cc2)cc1` (centres unmarked) [Example 184], the IC50 turned out to be 2720 nM at Human recombinant MMP-14; 1530 nM on Human recombinant MMP-1; 3.9 nM on Human recombinant MMP-13; 104 nM on Human recombinant MMP-9; 30.4 nM on Human recombinant MMP-2.
For `CN(C)Cc1ccc(C(=O)CCCCOc2ccc(S(=O)(=O)C3(C(=O)NO)CCN(C4CC4)CC3)cc2)cc1` [Example 187], in that order: 1420 nM, 3870 nM, 1.8 nM, 11.2 nM and 3.6 nM.
With `O=C(NO)C1(S(=O)(=O)c2ccc(OCCSc3nc4ccc(Cl)cc4o3)cc2)CCN(C2CC2)CC1` [Example 188], the IC50 at Human recombinant MMP-14 was 3540 nM; on Human recombinant MMP-1, more than 10000 nM; at Human recombinant MMP-13, 0.3 nM; on Human recombinant MMP-9, 48.2 nM; on Human recombinant MMP-2 it was 4.7 nM.
For `CCc1ccc(N2CCN(CCCOc3ccc(S(=O)(=O)C4(C(=O)NO)CCOCC4)cc3)C2=O)cc1` [Example 191], in that order: more than 10000 nM, 6960 nM, 9.5 nM, 383 nM and 341 nM.
For `O=C1N(CCCOc2ccc(S(=O)(=O)C3(C(=O)NO)CCOCC3)cc2)CCN1c1ccc(C(F)(F)F)cc1` [Example 193], in that order: more than 10000 nM, 5930 nM, 6.8 nM, 273 nM and 312 nM.
For `O=C1N(CCCOc2ccc(S(=O)(=O)C3(C(=O)NO)CCOCC3)cc2)CCN1c1ccc(OC(F)(F)F)cc1` [Example 194], in that order: more than 10000 nM, more than 10000 nM, 6.2 nM, 516 nM and 222 nM.
For `O=C1N(CCCOc2ccc(S(=O)(=O)C3(C(=O)NO)CCOCC3)cc2)CCN1c1ccc(F)cc1` [Example 195], the IC50 was 2740 nM at Human recombinant MMP-14; 4380 nM at Human recombinant MMP-1; 7.5 nM on Human recombinant MMP-13; 45.8 nM at Human recombinant MMP-9; 20.6 nM on Human recombinant MMP-2.
For `O=C(NO)C1(S(=O)(=O)c2ccc(OCCCc3nnc(-c4ccc(OC(F)(F)F)cc4)o3)cc2)CCOCC1` [Example 200], in that order: more than 10000 nM, 7500 nM, 0.6 nM, 1210 nM and 84 nM.
With `Cc1ccc(/C(C#N)=C/CCCOc2ccc(S(=O)(=O)C3(C(=O)NO)CCN(C4CC4)CC3)cc2)cc1C` [Example 201], the IC50 at Human recombinant MMP-14 was more than 10000 nM; on Human recombinant MMP-1, more than 10000 nM; on Human recombinant MMP-13 it was 0.7 nM; on Human recombinant MMP-9, 4510 nM; at Human recombinant MMP-2 it was 128 nM.
Take `O=C(NO)C1(S(=O)(=O)c2ccc(OCCCSc3nc4ccccc4o3)cc2)CCN(C2CC2)CC1` [Example 203]: the IC50 at Human recombinant MMP-14 is more than 10000 nM; on Human recombinant MMP-1, more than 10000 nM; on Human recombinant MMP-13, 1 nM; at Human recombinant MMP-9, 6 nM; on Human recombinant MMP-2, 4.2 nM.
In the case of `Cc1ccc(-c2nnc(CCCOc3ccc(S(=O)(=O)C4(C(=O)NO)CCOCC4)cc3)o2)c(C)c1` [Example 204], the IC50 is more than 10000 nM on Human recombinant MMP-14; more than 10000 nM at Human recombinant MMP-1; 0.6 nM at Human recombinant MMP-13; 1820 nM at Human recombinant MMP-9; 146 nM on Human recombinant MMP-2.
As for `CCCc1ccc(-c2nc(CCCOc3ccc(S(=O)(=O)C4(C(=O)NO)CCN(CCOC)CC4)cc3)oc2C)cc1` [Example 206], the IC50 at Human recombinant MMP-14 was 3110 nM; on Human recombinant MMP-1 it was more than 10000 nM; at Human recombinant MMP-13 it was 15.8 nM; at Human recombinant MMP-9 it was 59.4 nM; at Human recombinant MMP-2, 92.6 nM.
Consider `CCCc1ccc(-c2nc(CCCOc3ccc(S(=O)(=O)C4(C(=O)NO)CCOCC4)cc3)oc2C)cc1` [Example 207], for which the IC50 is more than 10000 nM at Human recombinant MMP-14; more than 10000 nM at Human recombinant MMP-1; 3.7 nM at Human recombinant MMP-13; 127 nM at Human recombinant MMP-9; 114 nM at Human recombinant MMP-2.
In the case of `O=C(NCCCOc1ccc(S(=O)(=O)C2(C(=O)NO)CCN(C3CC3)CC2)cc1)c1ccc(OC(F)(F)F)cc1` [Example 208], the IC50 on Human recombinant MMP-14 is more than 10000 nM; on Human recombinant MMP-1, more than 10000 nM; on Human recombinant MMP-13 it was 0.6 nM; at Human recombinant MMP-9, 6590 nM; at Human recombinant MMP-2, 230 nM.
As to `CC(C)Oc1ccc(-c2nnc(CCCOc3ccc(S(=O)(=O)C4(C(=O)NO)CCOCC4)cc3)o2)cc1` [Example 209], the IC50 is more than 10000 nM on Human recombinant MMP-14; more than 10000 nM at Human recombinant MMP-1; 1.4 nM on Human recombinant MMP-13; 906 nM on Human recombinant MMP-9; 172 nM at Human recombinant MMP-2.
As to `O=C(NO)C1(S(=O)(=O)c2ccc(OCCCc3nc(-c4cccc([N+](=O)[O-])c4)no3)cc2)CCOCC1` [Example 210], the IC50 on Human recombinant MMP-14 is more than 10000 nM; on Human recombinant MMP-1 it was more than 10000 nM; at Human recombinant MMP-13 it was 1.3 nM; at Human recombinant MMP-9, 285 nM; at Human recombinant MMP-2, 6.9 nM.
Turning to `O=C(NO)C1(S(=O)(=O)c2ccc(OCCCc3nc(-c4cc(F)ccc4F)no3)cc2)CCOCC1` [Example 211], the half-inhibitory concentration (IC50) was more than 10000 nM on Human recombinant MMP-14; 9650 nM at Human recombinant MMP-1; 0.4 nM at Human recombinant MMP-13; 864 nM on Human recombinant MMP-9; 26.2 nM on Human recombinant MMP-2.
For `O=C(NO)C1(S(=O)(=O)c2ccc(OCCCc3nc(-c4ccc([N+](=O)[O-])cc4)no3)cc2)CCOCC1` [Example 212], in that order: more than 10000 nM, 1410 nM, 0.3 nM, 212 nM and 4.1 nM.
For the compound `O=C(NO)C1(S(=O)(=O)c2ccc(OCCCc3nc(-c4cccc(Cl)c4Cl)no3)cc2)CCOCC1` [Example 213], the IC50 is more than 10000 nM on Human recombinant MMP-14; more than 10000 nM on Human recombinant MMP-1; 2.2 nM at Human recombinant MMP-13; 2200 nM at Human recombinant MMP-9; 54.8 nM at Human recombinant MMP-2.
Regarding `O=C(NO)C1(S(=O)(=O)c2ccc(OCCCc3nc(-c4c(Cl)cccc4Cl)no3)cc2)CCOCC1` [Example 214], the IC50 on Human recombinant MMP-14 was more than 10000 nM; on Human recombinant MMP-1, more than 10000 nM; at Human recombinant MMP-13, 3.3 nM; on Human recombinant MMP-9, 4240 nM; at Human recombinant MMP-2, 15.8 nM.
